# Experimental data: patent US9980963B2, “Treatment of cancer with dihydropyrazino-pyrazines” (Signal Pharmaceuticals, LLC, priority 2013, dated 2018)
# Entries after “also recorded” stand apart in the source; their conditions may differ.
# Columns and labels:
# Assay type in all cases: cell-based, human
# CLL cells [1] = assay: Detection of apoptosis with QvD or NAC co-treatment (DiOC6/PI); settings: 5 mM NAC, 48 hours
# Description: Apoptosis levels were measured by Flow using DiOC6/PI staining and specific apoptosis was calculated. Results are shown as mean±SEM.
# Where indicated, CLL cells were co-cultured in the presence/absence of 20 μM of the pancaspase inhibitor QvD or 5 mM N-acetyl-L-cysteine (NAC). CLL cell viability was measured by analysis of mitochondrial transmembrane potential by 3,3-dihexyloxocarbocyanine iodine (DiOC6; Invitrogen/Molecular Probes) and cell membrane permeability to propidium iodide (PI; Sigma Aldrich) using the FACS Calibur flow cytometer. Specific apoptosis is defined as [% cell death in drug treated cells]−[% cell death in medium control]/[% viable cells medium control]×100 using the Graphpad Prism software (Graphpad Prism 5.0, La Jolla, USA).
# ATM mutated CLL cells = assay: CLL patient cells apoptosis assay (DioC6/PI); settings: 48 hours; FIGS. 2D, G
# Description: Patient material (pheripheral blood) was obtained from CLL patients (diagnosed according to the NCI-WG guidelines) after routine follow-up or diagnostic procedures at the department of hematology of the Academic Medical Center Amsterdam. Peripheral blood mononuclear cells (PBMCs) were isolated by Ficoll density gradient centrifugation and stored in liquid nitrogen, as cell suspension in heat-inactivated fetal calf serum containing 10% DMSO. During all in vitro experiments, cells were maintained in culture medium: Iscove's modified Dulbecco medium supplemented with 10% heat-inactivated FCS, 100 U/mL penicillin, 100 m/mL gentamycin and 0.00036% β-mercaptoethanol. All samples contained at least 90% CD5+/CD19+ cells as assessed via flow cytometry. […] Apoptosis was analyzed by evaluation of mitochondrial membrane potential with DioC6 (Molecular probes). Cells were incubated with 10 nM DioC6 for 30 minutes at 37° C. and 20 μg/mL propidium iodide was added to measure cell death. Expression of DioC6 was determined using the FACSCalibur flow cytometer and CellQuest software was used for data acquisition.
# BIM and BID mRNA = assay: RT-MLPA in CD40L triggered CLL cells; settings: 1 μM, 3 days
# Description: (§1) FIG. 7A) Apoptosis was assessed by DiOC6/PI staining and results are shown as mean±SEM (n=7). *0.01≤P<0.05; **0.001≤P<<0.01; ***P<0.001 (paired T test). FIG. 7B) After 3 days, fludarabine sensitivity assay was performed. Apoptosis was assessed by DiOC6/PI staining and specific apoptosis are shown as mean±SEM (n=7). *0.01≤P<0.05; **0.001≤P<0.01 (paired T test) FIG. 7C) mRNA levels of pro-/anti-apoptotic mediators in CLL cells were measured by RT-MLPA (n=6). FIG. 7D) Protein lysates were probed for Bim and actin for loading control. Blots from two representative CLL samples shown, of a total of four analyzed.
# CLL cells [2] = assay: Blast cell formation of CD40L-cocultured CLL cells (FACS); settings: CD40L coculture; 1 μM, 3 days
# Description: FIG. 6A and FIG. 6B) Blast cell formation was assessed by FACS analysis and results are shown as mean±SEM. *0.01≤P<0.05; **0.001≤P<0.01; ***P<0.001 (paired one sample T test) FIG. 6C) CLL cells were examined for surface expression of CD95 (Fas), CD44, CD54 (ICAM) and CD58 (LFA-3) by flow cytometry. Results are shown as mean±SEM (n=6).
# [3] = tested on: mRNA of pro-/anti-apoptotic mediators in CLL cells; assay: RT-MLPA of pro- and anti-apoptotic regulators; settings: 1 μM, 24 hours
# Description: Reverse Transcription-Multiplex Ligation-Dependent Probe Amplification Assay.
# CLL Cells were harvested per stimulation, washed with PBS, resuspended in RNA lysis buffer (Qiagen, Venlo, the Netherlands) and stored at −80° C. RNA was isolated using the GenElute Mammalian Total RNA Miniprep kit (Sigma-aldrich). The concentration and purity of the RNA were determined with a NanoDrop spectrophotometer ND-1000 (NanoDrop Technologies, Willington, USA). Reverse transcription-multiplex ligation-dependent probe amplification assay (RT-MLPA) procedure was performed as described previously by Eldering et al. Nucleic Acids Res. 2003; 31:e153. In brief, 40-60 ng of total RNA of samples were first reverse transcribed using a gene-specific probe mix (R016-X2). The resulting cDNA was annealed overnight at 60° C. to the MLPA probes. The annealed oligonucleotides were covalently linked by Ligase-65 (MRC, Amsterdam, the Netherlands) at 54° C. […] Results were analyzed using the programs Genescan analysis and Genotypes (Applied Biosystems). Data was further analyzed with Microsoft Excel Spreadsheet software. Normalization was performed by setting the sum of all data per sample at 100% and individual peaks were calculated relative to the 100% value.
# CLL cells [4] = assay: CFSE proliferation assay of CLL cells on 3T40L cells with IL-21; settings: CD40L + IL-21 (25 ng/ml); 1 μM, 4 days
# Description: After 4 days, CFSE was measured by FACS. […] FIG. 8B) Division index was calculated with FlowJo program. […] PBMC (1.0×10^7/mL) were labelled with 0.5 μM carboxyfluorescein diacetate succinimidyl ester (CFSE, Molecular Probes) as described before [Pascutti et al Blood 2013 2013; 122(17):3010-9]. […] After 4 days, proliferation was assessed in a FACS Canto (BD Biosciences) and analyzed with FlowJosoftware (TreeStar, Ashland, Oreg.).
# [5] = tested on: CD95, CD54, CD58, CD44 on CLL cells; assay: Expression of cell surface markers (flow cytometry); settings: CD40L coculture; 1 μM, 3 days
# Description: Expression of Cell Surface Markers.
# Cells were washed and resuspended in staining media (phosphate-buffered saline (PBS) containing 0.5% (wt/vol) bovine serum albumin (BSA)). For analysis of expression of cell surface markers, different combinations of antibodies were used. CD54-PE and CD95-FITC purchased from Pharmingen. CD44-Alexa Fluor 700 was obtained from eBiosciences and CD58 from Immunotech. After incubation for 30 minutes at 4° C. protected from light, cells were washed twice in PBS/0.5% BSA and expression of cell surface markers was analyzed using FACSCalibur flow cytometry.
# primary CLL cells = assay: BCR-mediated adhesion of primary CLL cells to fibronectin; settings: 1 μM pretreatment; IgVH unmutated samples; n=5
# Description: Graphs are presented as normalized mean±SEM (100%=stimulated cells without inhibitors). *0.01≤P<0.05; **0.001≤P<0.01 (paired one sample T test) (n=5). BCR-mediated adhesion of primary CLL cells (FIG. 4) was tested.
# Bim = Bim protein Western blot in CD40L-cocultured CLL cells; settings: CD40L coculture; 1 μM, 3 days
# Description: as §1
# Western blot analysis was performed using standard techniques [Hallaert et al. Blood 2008(112):5141-5149]. Samples (50 μg protein) were separated by 13% SDS-PAGE gel electrophoresis. Membranes were probed with anti-p-S6, p-4EBP1, p-Akt (Thr308), p-Akt (Ser473) (Cell Signaling), Bim (Stressgen Bioreagents Canada) and antiserum to β-actin (Santa Cruz Biotechnology) as loading control. Blots were subsequently incubated with IRDye 680 or 800 labelled secondary antibodies for 1 hour. Odyssey Imager (Li-Cor Biosciences) was used as a detection method according to the manufacturer's protocol. For the p-DNA-PK western blot, cells were lysed in RIPA sample buffer and sonificated. Samples (50 μg protein) were separated by mini protean TGX gels (Biorad). […]
# IGVH mutated CLL cells = assay: CLL patient cells apoptosis assay (DioC6/PI); settings: 48 hours; FIGS. 2A, E
# Excerpt: (§2) CLL Patient Cells Apoptosis Assay. Patient material ([…] blood) was obtained from CLL patients (diagnosed according to the NCI-WG guidelines) after routine follow-up or diagnostic procedures at the department of hematology of the Academic Medical Center Amsterdam. Peripheral blood mononuclear cells (PBMCs) were isolated by Ficoll density gradient centrifugation and stored in liquid nitrogen, as cell suspension in heat-inactivated fetal calf serum containing 10% DMSO. During all in vitro experiments, cells were maintained in culture medium: Iscove's modified Dulbecco medium supplemented with 10% heat-inactivated FCS, 100 U/mL penicillin, […] gentamycin and 0.00036% β-mercaptoethanol. All samples contained at least 90% CD5+/CD19+ cells as assessed via flow cytometry. B-CLL cells were thawed and diluted to a concentration of 1.10^6 cells/mL in IMDM plus supplements as described above. […] Apoptosis was analyzed by evaluation of mitochondrial membrane potential with DioC6 (Molecular probes). Cells were incubated with 10 nM DioC6 for 30 minutes at 37° C. and 20 μg/mL propidium iodide was added to measure cell death. Expression of DioC6 was determined using the FACSCalibur flow cytometer and CellQuest software was used for data acquisition. Data were analyzed with FlowJo software (TreeStar, San Carlos, Calif., USA).
# IGVH unmutated CLL cells = assay: CLL patient cells apoptosis assay (DioC6/PI); settings: 48 hours; FIGS. 2B, F
# Excerpt: as §2
# P53 mutated CLL cells = assay: CLL patient cells apoptosis assay (DioC6/PI); settings: 48 hours, FIGS. 2C
# Excerpt: as §2
# CLL cells [6] = assay: CD40L coculture survival and fludarabine sensitivity assay (DiOC6/PI)
# Description: as §1
# CD40 stimulation inhibits spontaneous cell death as previously reported [Burger et al. Blood 2009(114):2560-2561]. Lymphocytes of CLL patients were stimulated by coculture with NIH3T3 fibroblasts stably transfected with human CD40L or negative control plasmid (3T3) as described before [Pascutti et al Blood 2013 2013; 122(17):3010-9]. […] After 72 hours of culture, CLL cells were detached and either used for flowcytrometic analyses or subsequently incubated with or without Fludarabine (Sigma) for an additional 48 hours. CLL cell viability was measured as by DiOC6/PI staining as described above. […] CD40L stimulation induces resistance to cytotoxic agents, including fludarabine [Kater et al. Brit J Haematology 2004; 127:404-415].
# phospho-S6 = assay: Western blot of mTOR pathway, unstimulated CLL cells; settings: 1 μM, 2 hours
# Description: (§3) Protein lysates were probed for phospho-S6 and actin for loading control. Blots from three representative CLL samples are shown, of a total of five analyzed. […] Blots were probed for p-Akt(Thr308), p-Akt (Ser473), p-S6, p-4EBP1 and actin for loading control. Blots from two representative CLL samples shown, of a total of four analyzed.
# (§4) Western blot analysis was performed using standard techniques [Hallaert et al. Blood 2008(112):5141-5149]. Samples (50 μg protein) were separated by 13% SDS-PAGE gel electrophoresis. Membranes were probed with anti-p-S6, p-4EBP1, p-Akt (Thr308), p-Akt (Ser473) (Cell Signaling), Bim (Stressgen Bioreagents Canada) and antiserum to β-actin (Santa Cruz Biotechnology) as loading control. Blots were subsequently incubated with IRDye 680 or 800 labelled secondary antibodies for 1 hour. Odyssey Imager (Li-Cor Biosciences) was used as a detection method according to the manufacturer's protocol. For the p-DNA-PK western blot, cells were lysed in RIPA sample buffer and sonificated. Samples (50 μg protein) were separated by mini protean TGX gels (Biorad). Transfer onto Immobilon-FL transfer membrane (Millipore) in 1× transfer buffer, 20% MeOH at 30 volts at 4° C. overnight. The following antibodies were used: p-DNA-PK (Ser2056) (Abcam), KAP (TIF1β), phosphorylated-KAP (phospho-TIF1β-ser824; Cell Signalling) and β-actin (Santa Cruz).
# [7] = tested on: p-S6, p-4EBP1, p-Akt (Ser473); assay: Western blot of mTOR pathway, CD40L-activated CLL cells; settings: 100, 500 or 1000 nM, 72 hours
# Description: as §3, §4
# del(11q) CLL cells = assay: Compound toxicity assay for CLL patient cells (del(11q)); settings: single agent; feeder layer of CD40 ligand-expressing NIH 3T3 cells; FIG. 1B
# Wildtype CLL cells = assay: Compound toxicity assay for CLL patient cells (wildtype); settings: FIG. 1A; for sensitivity of wildtype CLL cells to the compound: single agent, feeder layer of CD40 ligand-expressing NIH 3T3 cells
smiles,measurement,setting,value
"CCN1C(=O)CNc2ncc(-c3ccc(-c4nc[nH]n4)nc3C)nc21 [Compound 1, 1-ethyl-7-(2-methyl-6-(1H-1,2,4-triazol-3-yl)pyridin-3-yl)-3,4-dihydropyrazino[2,3-b]pyrazin-2(1H)-one]",ROS dependence of cell death: effect of NAC co-treatment on cell death,CLL cells [1],did not result in inhibition
same,induction of apoptosis,ATM mutated CLL cells,induced apoptosis
same,CD40-mediated inhibition of BIM (RNA),BIM and BID mRNA,blocked
same,upregulation of BID (RNA),BIM and BID mRNA,decreased
same,blast-like appearance / blast cell formation,CLL cells [2],completely blocked
same,"levels of pro- and anti-apoptotic regulators on RNA level, including p53-target genes",[3],not altered
same,proliferation of CLL cells,CLL cells [4],completely blocks; also recorded: fully blocked
same,"3T40L-induced upregulation of immune accessory molecules (CD95, CD54, CD58, CD44)",[5],significant inhibition
same,anti-IgM-stimulated integrin-mediated adhesion to fibronectin,primary CLL cells,strongly inhibited
same,CD40-mediated decreased expression of Bim protein,Bim,blocked
same,induction of apoptosis,IGVH mutated CLL cells,induced apoptosis
same,induction of apoptosis,IGVH unmutated CLL cells,induced apoptosis
same,induction of apoptosis,P53 mutated CLL cells,induced apoptosis
same,fludarabine sensitivity,"CLL cells [6]; 72 hours CD40L coculture, then fludarabine 48 hours",partly reversed
same,CD40L-induced survival,"CLL cells [6]; CD40L coculture, 1 μM, 3 days",inhibited
same,CD40-induced fludarabine resistance,"CLL cells [6]; co-treatment with Compound 1 during CD40L coculture, then fludarabine 48 hours",completely abolished
same,phosphorylation of S6,phospho-S6,completely blocked
same,p-4EBP1 upregulation,[7],completely blocked
same,p-Akt (Ser473) upregulation,[7],completely blocked
same,p-S6 upregulation,[7],completely blocked
same,sensitivity of del(11q) CLL cells to the compound,del(11q) CLL cells,exclusively sensitive
same,enhancement of response by addition of Compound 1 to the etoposide regimen,"Wildtype CLL cells; combination with etoposide, ATM-proficient CLL cells",did not significantly enhance
same,sensitivity of wildtype CLL cells to the compound,Wildtype CLL cells,resistant
"COc1cc([C@@H]2c3cc4c(cc3[C@@H](O[C@@H]3O[C@@H]5CO[C@@H](C)O[C@H]5[C@H](O)[C@H]3O)[C@H]3COC(=O)[C@H]23)OCO4)cc(OC)c1O [etoposide, reference compound]",sensitivity of del(11q) CLL cells to the compound,del(11q) CLL cells,largely resistant
same,sensitivity of wildtype CLL cells to the compound,Wildtype CLL cells,highly sensitive
